From patent US20180028480A1, “METHODS OF REDUCING OR PREVENTING OXIDATIVE MODIFICATION OF MEMBRANE POLYUNSATURATED FATTY ACIDS” (Amarin Pharmaceuticals Ireland Limited, priority 2015, published 2018)

Legend:
[1] = test system: lipid vesicles enriched with PUFAs and cholesterol; test: Glucose-induced membrane lipid peroxidation (LOOH) in DLPC/cholesterol multilamellar vesicles (Example 4); type: biochemical; conditions: for effect on LOOH formation / lipid peroxidation: 72- and 96-hour time points, 1:30 drug-to-phospholipid mole ratio (FIG. 3)
Procedure: Vitamin E (α-tocopherol) was also purchased from Sigma-Aldrich and prepared in ethanol at 1.0 mM (ε32 3.06×10^4 M^−1 cm^−1 at 294 nm) just prior to experimental use. […] All test compounds were further diluted in ethanol or aqueous buffer as needed. Glucose was prepared in saline buffer (0.5 mM HEPES, 154 mM NaCl, pH 7.3) at 11.0 mM (200 mg/dL). CHOD-iodide color reagent (stock) was prepared, with slight modification, as described by from El-Saadani et al. (J. […] Prior to experimental use, the CHOD reagent was activated by adding 24 μM ethylenediaminetetraacetic acid (EDTA), 20 μM butylated hydroxytoluene (BHT), and 0.2% Triton X-100. Multilamellar vesicles (MLVs) were prepared as binary mixtures of DLPC (1.0 or 2.5 mg total phospholipid per sample) and cholesterol at a fixed cholesterol-to-phospholipid (C/P) mole ratio of 0.6:1. Component lipids (in chloroform) were transferred to 13×100 mm borosilicate culture tubes and combined with vehicle (ethanol) or an equal volume of fatty acid, vitamin E, or ATM stock solutions, each adjusted to achieve desired treatment concentrations. Samples were shell-dried under nitrogen gas and placed under vacuum for 1 h to remove residual solvent. […] Lipid suspensions were then vortexed for 3 min at ambient temperature to form MLVs. All MLV samples were subjected to time-dependent autoxidation by incubating at 37° C. in an uncovered, shaking water bath. This method allows lipid peroxidation to occur gradually without requiring the use of exogenous initiators. Small aliquots (5-100 μL) of each sample were removed, immediately following MLV preparation (0 hour) and after exposing samples to oxidative conditions for 72 or 96 hour, and combined with 1.0 mL of activated CHOD-iodide color reagent. Aliquot volume was reduced with each successive time point to ensure that spectrophotometric readings were within the optimal adsorption range. Test samples were covered and incubated in darkness at room temperature for at least 4 hr. Sample absorbances were then measured against a CHOD blank at 365 nm using a Beckman DU-640 spectrophotometer. The CHOD colorimetric assay is based on the oxidation of iodide (I^−) by lipid hydroperoxide (LOOH) to form triiodide (I3^−), the quantity of which is directly proportional to the amount of LOOH present in the lipid sample. The molar absorptivity (c) of I3^− is 2.46×10^4 M^−1 cm^−1 at 365 nm. […] The concentration of glucose selected was consistent with previous experimental studies of hyperglycemia under controlled laboratory conditions or observed in well-defined animal models of Type II diabetes following a glucose challenge. […] Values in FIG. 1 are mean±S.D. (N=6). […]

human sdLDL = test: Copper-induced sdLDL oxidation, TBARS (Example 6); type: biochemical; conditions: 1.0 μM to 10.0 μM; 2 hr copper oxidation
Procedure: An experiment to study the antioxidant effect of EPA in small dense LDL (“sdLDL”) was performed. EPA was purchased from Sigma-Aldrich (Saint Louis, Mo.) and solubilized in ethanol to 1 mM under nitrogen atmosphere. Vitamin E (α-tocopherol) was purchased from Sigma-Aldrich and prepared in ethanol at 1.0 mM (c=3.06×10^4 M^−1 cm^−1 at 294 nm) just prior to experimental use. All test compounds were further diluted in ethanol or aqueous buffer as needed.
Venous blood was collected from healthy volunteers into vacutainer tubes containing sodium EDTA. Plasma was separated by centrifugation at 3000 g for 25 min at 4° C. and adjusted to a density of 1.020 g/mL with KBr. […]
LDL and sdLDL subfractions (0.6 mL each) were incubated with either 10 μL vehicle (ethanol) or 10 μL drug stock solution for 30 min to 1 hr at 37° C. […] Sample TBARS concentrations were determined spectrophotometrically by measuring sample absorbances against a standard curve derived from the hydrolysis of 1,1,3,3-tetramethoxypropane.
Data are presented as mean±S.D. for (N) separate samples or treatment groups. Differences between groups were analyzed using the two-tailed, Student's t-test (for comparisons between only two groups) or ANOVA followed by Dunnett or Student-Newman-Keuls multiple comparisons post-hoc analysis (for comparisons between three or more groups). […]

Compound | effect on LOOH formation / lipid peroxidation [1] | antioxidant effect (LOOH formation), separate treatments ([1]; each at 1.0 μM, glucose 200 mg/dL, 96 hours) | sdLDL oxidation (human sdLDL)
CC/C=C\C/C=C\C/C=C\C/C=C\C/C=C\CCCC(=O)O [EPA, cis-5,8,11,14,17-Eicosapentaenoic acid] | significantly inhibited LOOH formation | separate and potent antioxidant effects | inhibited sdLDL oxidation over a broad range of concentrations
Cc1c(C)c2c(c(C)c1O)CC[C@@](C)(CCC[C@H](C)CCC[C@H](C)CCCC(C)C)O2 [vitamin E, α-tocopherol, reference compound] | no significant effect on lipid peroxidation | – | did not inhibit sdLDL oxidation except at the highest concentration
